Structures are written as SMILES. pIC50: −log10 of the molar value. Where two headings read alike, the source gives them in different places.

Type in all cases: biochemical
One test deals with KDR kinase (Homo sapiens, UniProt P35968, DEL940-989/E990V). Briefly: KDR kinase assay K1. On the procedure: (§1) IC50 values were calculated from a series of percent inhibition values determined at a range of inhibitor concentrations using software routines as implemented in the GraphPad Prism software package.
Chain of KDR kinase (P35968 with tags, fused parts or gaps DEL940-989/E990V): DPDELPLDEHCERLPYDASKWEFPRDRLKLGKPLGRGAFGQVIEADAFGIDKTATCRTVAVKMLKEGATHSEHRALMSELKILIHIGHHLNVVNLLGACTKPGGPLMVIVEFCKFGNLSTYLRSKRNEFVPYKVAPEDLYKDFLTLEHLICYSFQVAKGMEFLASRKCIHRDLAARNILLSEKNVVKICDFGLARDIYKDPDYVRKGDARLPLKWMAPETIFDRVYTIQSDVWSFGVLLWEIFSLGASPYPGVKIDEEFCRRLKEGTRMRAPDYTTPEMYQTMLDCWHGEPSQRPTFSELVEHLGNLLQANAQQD
The next test has as its target B-Raf(V599E) kinase (Homo sapiens, UniProt P15056, V600E). Briefly: B-Raf(V599E) kinase assay B1. The settings on record: for IC50: Method B1, construct 1; for inhibition at 1 µM: read-out: Results, % @ concentration μM. The method, then:
The test compounds were incubated with the reaction mixture at 30° C. for 2 h. […] The reaction rate was calculated using the 1.5 h to 2.5 h time frame. […] IC50 values were calculated from a series of percent inhibition values determined at a range of inhibitor concentrations using software routines as implemented in the GraphPad Prism software package.

The target of a further test is T1, Abl kinase (Homo sapiens, UniProt P00519).
T1 sequence (P00519 229-512): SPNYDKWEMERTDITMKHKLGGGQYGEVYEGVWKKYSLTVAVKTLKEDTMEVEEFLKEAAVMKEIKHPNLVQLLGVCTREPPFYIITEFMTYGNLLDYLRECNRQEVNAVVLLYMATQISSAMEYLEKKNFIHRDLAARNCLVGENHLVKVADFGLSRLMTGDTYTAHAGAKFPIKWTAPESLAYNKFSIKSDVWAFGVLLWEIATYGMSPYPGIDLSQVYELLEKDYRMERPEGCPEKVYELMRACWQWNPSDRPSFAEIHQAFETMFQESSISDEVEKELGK
Put plainly: Abl kinase assay A1. The conditions noted are these: for IC50: read-out: Results, μM (IC50). On the procedure:
as §1

Test [1] concerns the target phosphorylated p-38-alpha kinase (Homo sapiens, UniProt Q16539). Put plainly: P-38 alpha kinase assay P1. The settings on record: Method P1; 2 h pre-incubation before ATP.
The target of test [2] is T2, phospho p-38 alpha kinase (Homo sapiens, UniProt Q16539).
T2 construct: purchased Panvera
T2 sequence (Q16539 whole entry): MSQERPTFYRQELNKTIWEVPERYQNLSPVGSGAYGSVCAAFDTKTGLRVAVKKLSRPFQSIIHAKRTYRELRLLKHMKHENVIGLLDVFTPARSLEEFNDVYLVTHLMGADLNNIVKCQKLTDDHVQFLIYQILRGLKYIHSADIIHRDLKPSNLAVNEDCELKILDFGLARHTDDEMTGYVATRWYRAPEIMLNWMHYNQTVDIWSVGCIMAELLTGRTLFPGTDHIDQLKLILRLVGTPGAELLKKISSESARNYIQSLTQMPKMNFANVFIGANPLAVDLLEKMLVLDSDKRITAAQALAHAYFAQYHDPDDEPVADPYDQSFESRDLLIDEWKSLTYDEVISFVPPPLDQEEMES
Put plainly: P-38 alpha kinase assay (spectrophotometric, pyruvate kinase/lactate dehydrogenase coupled). The conditions noted are these: Table 5; for IC50: assay not named, read-out: uM.

Where [3] appears, read: read-out: Results, % @ concentration μM, Method K1, @ 10 μM.
The mark [4] stands for this setting: read-out: Results, % @ concentration μM, Method A1, @ 10 μM.
The mark [5] stands for this setting: read-out: Results, % @ concentration μM.

Chain of B-Raf(V599E) kinase (P15056 with tags, fused parts or gaps V600E): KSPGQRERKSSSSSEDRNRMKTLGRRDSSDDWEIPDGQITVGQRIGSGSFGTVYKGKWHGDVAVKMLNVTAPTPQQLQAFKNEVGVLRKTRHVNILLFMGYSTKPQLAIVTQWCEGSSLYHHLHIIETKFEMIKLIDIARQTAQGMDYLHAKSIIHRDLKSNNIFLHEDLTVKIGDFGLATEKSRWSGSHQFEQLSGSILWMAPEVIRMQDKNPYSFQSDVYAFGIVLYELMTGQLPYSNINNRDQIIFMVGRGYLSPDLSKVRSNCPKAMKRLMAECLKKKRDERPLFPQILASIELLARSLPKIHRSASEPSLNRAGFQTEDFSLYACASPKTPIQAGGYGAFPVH
Chain of phosphorylated p-38-alpha kinase (Q16539 1-360 isoform Q16539-2): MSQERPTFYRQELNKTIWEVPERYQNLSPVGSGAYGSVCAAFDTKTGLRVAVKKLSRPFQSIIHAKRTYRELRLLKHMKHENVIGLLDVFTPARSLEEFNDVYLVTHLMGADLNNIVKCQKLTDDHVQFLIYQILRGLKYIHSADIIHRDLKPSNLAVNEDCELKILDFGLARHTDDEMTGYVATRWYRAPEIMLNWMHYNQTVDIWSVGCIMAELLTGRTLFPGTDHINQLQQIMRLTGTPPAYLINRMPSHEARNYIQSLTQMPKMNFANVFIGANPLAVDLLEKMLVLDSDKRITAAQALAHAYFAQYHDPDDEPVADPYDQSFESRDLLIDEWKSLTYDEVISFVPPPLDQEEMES

Take `CN(C)[C@@H]1CCN(C(=O)Cc2ccc(-n3nc(C(C)(C)C)cc3NC(=O)Nc3cccc(Cl)c3Cl)cc2)C1` [Example 480, (R)-1-(3-tert-butyl-1-(4-(2-(3-(dimethylamino)pyrrolidin-1-yl)-2-oxoethyl)phenyl)-1H-pyrazol-5-yl)-3-(2,3-dichlorophenyl)urea]: the inhibition at 10 µM amounted to 92% at KDR kinase (setting [3]) and 94% on Abl kinase (setting [4]). Besides, the IC50 at B-Raf(V599E) kinase amounted to 0.029 µM.
As for `NC(=O)Cc1cccc(-n2nc(-c3ccccc3)cc2NC(=O)Nc2cccc(Oc3cccnc3)c2)c1` [Example 501, 1-(1-(3-(2-amino-2-oxoethyl)phenyl)-3-phenyl-1H-pyrazol-5-yl)-3-(3-(pyridin-3-yloxy)phenyl)urea], the IC50 was 0.076 µM in test [1], 1.6 µM against KDR kinase (Method K1) and 2.5 µM on Abl kinase (Method A1).
`CC(C)(C)c1cc(NC(=O)Nc2ccc(F)c(F)c2F)n(-c2ccc(CC(=O)O)cc2)n1` [Example 492, 2-(4-(3-tert-butyl-5-(3-(2,3,4-trifluorophenyl)ureido)-1H-pyrazol-1-yl)phenyl)acetic acid]: the IC50 in test [2] came to 0.04 µM; in test [1] it was 0.008 µM; against B-Raf(V599E) kinase, 0.028 µM. For the same compound, the inhibition at 10 µM on KDR kinase (setting [3]) amounted to 50%; at Abl kinase (setting [4]), 49%.
For the compound `O=C(O)Cc1ccc(-n2nc(C3CCCC3)cc2NC(=O)Nc2cccc(Cl)c2Cl)cc1` [Example 441, 2-(4-(3-cyclopentyl-5-(3-(2,3-dichlorophenyl)ureido)-1H-pyrazol-1-yl)phenyl)acetic acid], the IC50 in test [1] was 0.005 µM; at B-Raf(V599E) kinase, 0.037 µM. Further, the inhibition at 10 µM at KDR kinase (setting [3]) stood at 62%; on Abl kinase (setting [4]) it was 44%.
For the compound `CN(C)[C@H]1CCN(C(=O)Cc2cccc(-n3nc(C(C)(C)C)cc3NC(=O)Nc3cccc(Cl)c3Cl)c2)C1` [Example 465, 1-(3-tert-butyl-1-(3-(2-((S)-3-(dimethylamino)pyrrolidin-1-yl)-2-oxoethyl)phenyl)-1H-pyrazol-5-yl)-3-(2,3-dichlorophenyl)urea], at KDR kinase (setting [5]), the inhibition at 10 µM stood at 91%. For the same compound, on Abl kinase, the negative-log IC50 (pIC50) was 5.92.
On to `CCOC(=O)Cc1ccc(-n2nc(C3CCCC3)cc2NC(=O)Nc2cccc(Cl)c2Cl)cc1` [Example 437, ethyl 2-(4-(3-cyclopentyl-5-(3-(2,3-dichlorophenyl)ureido)-1H-pyrazol-1-yl)phenyl)acetate], for which the inhibition at 10 µM on KDR kinase (setting [3]) stood at 32%; at Abl kinase (setting [4]) it was 21%. This compound came in with an IC50 against B-Raf(V599E) kinase of 0.16 µM.
Regarding `CN(C)[C@@H]1CCN(C(=O)Cc2cccc(-n3nc(C(C)(C)C)cc3NC(=O)Nc3cccc(Cl)c3Cl)c2)C1` [Example 464, 1-(3-tert-butyl-1-(3-(2-((R)-3-(dimethylamino)pyrrolidin-1-yl)-2-oxoethyl)phenyl)-1H-pyrazol-5-yl)-3-(2,3-dichlorophenyl)urea], the inhibition at 10 µM on KDR kinase (setting [5]) turned out to be 85%; at Abl kinase (setting [5]), 82%.
For `O=C(Nc1cccc(Cl)c1Cl)Nc1cc(-c2cccs2)nn1-c1cccc(CC(=O)N2CC[C@H](O)C2)c1` [Example 463, 1-(2,3-dichlorophenyl)-3-(1-(3-(2-((S)-3-hydroxypyrrolidin-1-yl)-2-oxoethyl)phenyl)-3-(thiophen-2-yl)-1H-pyrazol-5-yl)urea], the IC50 in test [2] worked out at 0.056 µM; in test [1], 0.025 µM. The inhibition at 10 µM came out at 47% on KDR kinase (setting [3]) and 44% on Abl kinase (setting [4]). Also, the inhibition at 1 µM at B-Raf(V599E) kinase is 23%.
In the case of `CC(C)(C)c1cc(NC(=O)Nc2cccc(Oc3cnccn3)c2)n(-c2cccc(CC(N)=O)c2)n1` [Example 504, 1-(1-(3-(2-amino-2-oxoethyl)phenyl)-3-tert-butyl-1H-pyrazol-5-yl)-3-(3-(pyrazin-2-yloxy)phenyl)urea], the IC50 in test [1] was found to be 0.082 µM; against KDR kinase (Method K1), 0.049 µM; against B-Raf(V599E) kinase, 0.043 µM. The negative-log IC50 (pIC50) against Abl kinase is 7.20.
For the compound `CC(C)(C)c1cc(NC(=O)Nc2cccc(Cl)c2Cl)n(-c2ccc(CC(=O)N3CC[C@H](O)C3)cc2)n1` [Example 478, (S)-1-(3-tert-butyl-1-(4-(2-(3-hydroxypyrrolidin-1-yl)-2-oxoethyl)phenyl)-1H-pyrazol-5-yl)-3-(2,3-dichlorophenyl)urea], the IC50 in test [1] stood at 0.006 µM; at B-Raf(V599E) kinase, 0.028 µM. In addition, the inhibition at 10 µM amounted to 99% on KDR kinase (setting [3]) and 91% on Abl kinase (setting [4]).
In the case of `O=C(O)Cc1cccc(-n2nc(C3CCCC3)cc2NC(=O)Nc2cccc(Cl)c2Cl)c1` [Example 434, 2-(3-(3-cyclopentyl-5-(3-(2,3-dichlorophenyl)ureido)-1H-pyrazol-1-yl)phenyl)acetic acid], the IC50 in test [2] turned out to be 1.9 µM; in test [1], 0.004 µM; at KDR kinase (Method K1) it was 2.9 µM; at B-Raf(V599E) kinase it was 0.006 µM; at Abl kinase (Method A1), 3.9 µM.
Regarding `CC(C)(C)c1cc(NC(=O)Nc2cccc(Cl)c2Cl)n(-c2cccc(CN3C(=O)NC(=O)C3=O)c2)n1` [Example 482, 1-(3-tert-butyl-1-(3-((2,4,5-trioxoimidazolidin-1-yl)methyl)phenyl)-1H-pyrazol-5-yl)-3-(2,3-dichlorophenyl)urea], the IC50 was 0.084 µM in test [2], 1.4 µM against KDR kinase (Method K1), 0.0038 µM against B-Raf(V599E) kinase and 3.2 µM on Abl kinase (Method A1).
On to `CC(C)(C)c1cc(NC(=O)Nc2cccc(-c3ccc(N)nc3)c2)n(-c2cccc(CC(N)=O)c2)n1` [Example 508, 1-(1-(3-(2-amino-2-oxoethyl)phenyl)-3-tert-butyl-1H-pyrazol-5-yl)-3-(3-(6-aminopyridin-3-yl)phenyl)urea], for which the IC50 in test [2] amounted to 0.052 µM; in test [1], 0.33 µM; on B-Raf(V599E) kinase, 0.02 µM. Further, the inhibition at 10 µM on Abl kinase (setting [4]) amounted to 32%.
As to `CC(C)(C)c1cc(NC(=O)Nc2ccc(F)cc2F)n(-c2cccc(CC(N)=O)c2)n1` [Example 496, 1-(1-(3-(2-amino-2-oxoethyl)phenyl)-3-tert-butyl-1H-pyrazol-5-yl)-3-(2,4-difluorophenyl)urea], the IC50 at KDR kinase (Method K1) was determined as 2.4 µM; on B-Raf(V599E) kinase, 0.01 µM. In addition, the inhibition at 10 µM on Abl kinase (setting [4]) is 66%.
As to `CN(C)[C@@H]1CCN(C(=O)Cc2ccc(-n3nc(C(C)(C)C)cc3NC(=O)Nc3cccc(Cl)c3Cl)cc2)C1` [Example 481, (R)-1-(3-tert-butyl-1-(4-(2-(3-(dimethylamino)pyrrolidin-1-yl)-2-oxoethyl)phenyl)-1H-pyrazol-5-yl)-3-(2,3-dichlorophenyl)urea], the “Results, % @ concentration μM” value came out at 102% @10 at KDR kinase (Method K1, @ 10 μM) and 93% @10 on Abl kinase (Method A1, @ 10 μM). On B-Raf(V599E) kinase, this compound had an IC50 of 0.041 µM.
Take `CC(C)(C)c1cc(NC(=O)Nc2cccc(F)c2F)n(-c2cccc(CC(N)=O)c2)n1` [Example 495, 1-(1-(3-(2-amino-2-oxoethyl)phenyl)-3-tert-butyl-1H-pyrazol-5-yl)-3-(2,3-difluorophenyl)urea]: the IC50 in test [2] came out at 0.25 µM; in test [1] it was 0.038 µM; at B-Raf(V599E) kinase, 0.009 µM; at Abl kinase (Method A1), 7.6 µM.
Consider `O=C(O)Cc1cccc(-n2nc(-c3ccccc3F)cc2NC(=O)Nc2cccc(Cl)c2Cl)c1` [Example 433, 2-(3-(5-(3-(2,3-dichlorophenyl)ureido)-3-(2-fluorophenyl)-1H-pyrazol-1-yl)phenyl)acetic acid], for which the IC50 in test [1] was determined as 0.007 µM. The figures for the inhibition at 10 µM at KDR kinase (setting [3]) and on Abl kinase (setting [4]) were 63% and 39%, respectively. For the same compound, the inhibition at 1 µM at B-Raf(V599E) kinase came out at 37%.
With `O=C(Nc1ccc(F)c(F)c1F)Nc1cc(-c2cccs2)nn1-c1cccc(CO)c1` [Example 493, 1-(1-(3-(hydroxymethyl)phenyl)-3-(thiophen-2-yl)-1H-pyrazol-5-yl)-3-(2,3,4-trifluorophenyl)urea], the “% @ concentration, uM” value is recorded as 36% in test [2] (@ 1 uM) and 73% in test [2] (@ 10 uM). Moreover, the inhibition at 10 µM on KDR kinase (setting [3]) came to 82%. Further, the inhibition at 1 µM at Abl kinase (read-out: Results, % @ concentration μM, Method A1, @ 1 μM) was 17%.
As to `CC(C)(C)c1cc(NC(=O)Nc2cccc(Cl)c2Cl)n(-c2ccc(CC(=O)N3CCCC(C(=O)O)C3)cc2)n1` (stereo not shown) [Example 476, 1-(2-(4-(3-tert-butyl-5-(3-(2,3-dichlorophenyl)ureido)-1H-pyrazol-1-yl)phenyl)acetyl)piperidine-3-carboxylic acid], the IC50 in test [2] came to 0.024 µM; in test [1] it was 0.006 µM; at B-Raf(V599E) kinase, 0.041 µM; on Abl kinase (Method A1) it was 8.4 µM.
In the case of `CC(C)(C)c1cc(NC(=O)Nc2ccc(F)cc2F)n(-c2ccc(CC(=O)O)cc2)n1` [Example 497, 2-(4-(3-tert-butyl-5-(3-(2,4-difluorophenyl)ureido)-1H-pyrazol-1-yl)phenyl)acetic acid], the inhibition at 10 µM amounted to 43% at KDR kinase (setting [3]) and 30% on Abl kinase (setting [4]). The same compound displayed an IC50 against B-Raf(V599E) kinase of 0.045 µM.

By pIC50 is commonly meant the IC50 on a negative log10 scale, so that one unit is a factor of ten. A higher pIC50 goes with a low IC50.

These data come from patent US20090312349A1, “ANTI-INFLAMMATORY MEDICAMENTS” (priority 2004, published 2009).
